Experimental data: paper PMC8841457 (Clinical and Translational Science, 2021)

How the values were obtained:
[1] = system: healthy recreational polydrug users; experiment: Drug Liking VAS, human abuse potential study; type: in vivo; details: for Drug Liking VAS Emax LS mean difference: mixed-effect model
[2] = system: healthy recreational polydrug users; experiment: Drug Similarity VAS at 8 h postdose; type: in vivo, human; details: pentazocine 0.5 mg/kg i.v.
[3] = system: healthy recreational polydrug users; experiment: Pupillometry; type: in vivo, human; details: pentazocine 0.5 mg/kg i.v.; 8-h postdose period
[4] = system: healthy recreational polydrug users; experiment: Treatment-emergent adverse events; type: in vivo, human; details: pentazocine 0.5 mg/kg single i.v., n = 40; safety population
[5] = Plasma pharmacokinetics after single i.v. dose; details: pentazocine 0.5 mg/kg single i.v., n = 40
[6] = system: healthy recreational polydrug users; experiment: Drug effect questionnaire; details: pentazocine 0.5 mg/kg and difelikefalin 5 and 15 mcg/kg i.v.; unipolar 0-100 VAS
[7] = system: healthy recreational polydrug users; experiment: Global retrospective assessments at 8 h postdose; details: pentazocine 0.5 mg/kg i.v.

Q: What does the source list for `CC(C)=CCN1CCC2(C)c3cc(O)ccc3CC1C2C` (centres unmarked) [Pentazocine, pentazocine]?
A: Drug Liking VAS Emax LS mean difference ([1]; pentazocine 0.5 mg/kg i.v. vs difelikefalin 5 mcg/kg i.v., completer set N = 39): 21.95; Drug Liking VAS Emax LS mean difference ([1]; pentazocine 0.5 mg/kg i.v. vs difelikefalin 15 mcg/kg i.v., completer set N = 39): 20.92; Drug Liking VAS Emax LS mean difference ([1]; pentazocine 0.5 mg/kg i.v. vs placebo, completer set N = 39): 35.50; Mean Drug Liking VAS scores ([1]; pentazocine 0.5 mg/kg i.v., over the first 3 h): > 60 points; Drug Liking VAS Emax, median (min, max) ([1]; pentazocine 0.5 mg/kg single i.v., completer set N = 39): 91.0 (49, 100); Drug Similarity VAS, median, cannabinoids, hallucinogens, or stimulants ([2]; unipolar 0-100): ≤ 2.0; Drug Similarity VAS, median, benzodiazepines ([2]; unipolar 0-100, n=8): 22.5; Drug Similarity VAS, median, opioids ([2]; unipolar 0-100, n=38): 65.0; mean Emax reduction in pupil diameter from baseline (predose) [3]: 2.5 mm; Any TEAE, subjects [4]: 13 (32.5) n (%); Any serious TEAE, subjects [4]: 0 n (%); Any severe TEAE, subjects [4]: 0 n (%); Discontinuation due to TEAE, subjects [4]: 1 (2.5) n (%); TEAE Abdominal pain upper, subjects [4]: 0 n (%); TEAE Abdominal pain, subjects [4]: 0 n (%); TEAE Chills, subjects [4]: 2 (5.0) n (%); TEAE Constipation, subjects [4]: 1 (2.5) n (%); TEAE Dizziness, subjects [4]: 2 (5.0) n (%); TEAE Dyspepsia, subjects [4]: 0 n (%); TEAE Groin pain, subjects [4]: 0 n (%); TEAE Headache, subjects [4]: 4 (10.0) n (%); TEAE Hot flush, subjects [4]: 3 (7.5) n (%); TEAE Hypoesthesia, subjects [4]: 1 (2.5) n (%); TEAE Nausea, subjects [4]: 5 (12.5) n (%); TEAE Vomiting, subjects [4]: 5 (12.5) n (%); Cmax ([5]; human plasma, tandem MS, mean (SD)): 296.0 (197.7) ng/ml; AUC0-t ([5]; mean (SD)): 487.4 (133.5) h*ng/ml; V d ([5]; mean (SD)): 4280 (1079.8) ml/kg; t 1/2 ([5]; mean (SD)): 3.7 (1.2) h; Tmax ([5]; median [range]): 0.1 [0.1, 0.8] h; Bad Effects VAS Emax, scores overall [6]: < 20 points; PVAQ median value ([7]; 8 h postdose): 10.00 $; PVAQ mean value ([7]; 8 h postdose, $0-$100 scale): 9.60 $; Mean 8-h score, Overall Drug Liking VAS ([7]; bipolar VAS, 50 neutral): greater than or equal to 69 points; Mean 8-h score, Take Drug Again VAS ([7]; bipolar VAS, 50 neutral): greater than or equal to 69 points
